Measurements from ChEMBL document CHEMBL1125985, “Tubulin binding of conformationally restricted bis-aryl compounds” (Bioorg Med Chem Lett, 1991).

Target: Tubulin (Bos taurus, UniProt Q6B856+Q862L2+Q862F3)
Assay: In vitro inhibition of purified bovine brain tubulin polymerisation in the absence of microtubule-associated proteins.

Compound `COc1ccc(Cc2cc(OC)c(OC)c(OC)c2)cc1O` has an IC50 of 1.5e-06 M.
For `COc1ccc(CCCCc2cc(OC)c(OC)c(OC)c2)cc1O`, the IC50 was 5.8e-06 M.
Compound `COc1ccc(CCCc2cc(OC)c(OC)c(OC)c2)cc1O` has an IC50 of 2.4e-06 M.
`COc1ccc(CCc2cc(OC)c(OC)c(OC)c2)cc1O` showed an IC50 of 1.4e-06 M.
`COc1cc2c(c(OC)c1OC)C(c1ccc3c(c1)OCO3)CC2` (stereo unspecified) gave an IC50 of over 0.0002 M.
With `COc1cc2c(c(OC)c1OC)C(c1ccc3c(c1)OCO3)CCC2` (stereo unspecified) the IC50 was over 0.0002 M.
`COc1cc2c(cc1O)CCCc1cc(OC)c(OC)c(OC)c1-2` was tested, and the IC50 was 5.3e-06 M.
`COc1ccc(-c2ccc(OC)c(=O)cc2)c(OC)c1OC` was tested, and the IC50 was 7.5e-06 M.
For `COc1cc2c(cc1O)CCc1cc(OC)c(OC)c(OC)c1-2`, the IC50 was 0.000104 M.
For `COc1cc2c(cc1O)CCCCc1cc(OC)c(OC)c(OC)c1-2`, the IC50 was over 0.000125 M.
Compound `COc1cc(C2CCCc3cc4c(cc32)OCO4)cc(OC)c1OC` (stereo unspecified) has an IC50 of 2.4e-06 M.
Work on `COc1ccc(-c2ccc3c(c2)OCO3)c(OC)c1OC` yielded an IC50 of 0.00015 M.
`COc1cc(-c2ccc(OC)c(OC)c2OC)ccc1O` showed an IC50 of 0.000098 M.
`COc1ccc(CC(OC(C)=O)c2cc(OC)c(OC)c(OC)c2)cc1O` (stereo unspecified) was tested, and the IC50 was 5e-06 M.
In the case of `COc1cc(C2CCc3cc4c(cc32)OCO4)cc(OC)c1OC` (stereo unspecified), the IC50 is reported as 0.000012 M.
`COc1cc(Cc2ccc3c(c2)OCO3)cc(OC)c1OC` gave an IC50 of 0.000067 M.
